1 compound from US20250244419A1, “INFUSION DEVICE FOR THE PREPARATION AND DELIVERY OF MRI PROBES” (The United States of America, as represented by the …, priority 2022, published 2025) can be followed below.

SMILES strings stand for the structures.

This test can be described thus: Relaxation dynamics of hyperpolarized [1-13C]pyruvate (build-up time Tb, T1). The format is physicochemical. The source says: In addition, the relaxation dynamics of the [1-^13C]pyruvate were also studied.
In addition, relaxation dynamics at earth field and 1.8 T are about the same as a non-fluorinated SABRE catalyst T1=28.9±1.6 s and 66.5±7 s, respectively.
In addition, relaxation dynamics at earth field and 1.8 T are about the same as a non-fluorinated SABRE catalyst T1=9.0±1.9 s and 16.0±1.4 s, respectively.

With `C[13C](=O)C(=O)O` [[1-^13C]pyruvate, Sodium [1-^13C]-pyruvate], the “total P13C (bound+free) build-up time Tb” value (NFBME / deuterated methanol mixture, catalyst of Example 4) worked out at 3.0 ± 0.8 s and the “total P13C (bound+free) build-up time Tb” value (methanol, catalyst of Example 4, DMSO co-ligand) amounted to 6.6 ± 3.0 s.
